From article PMC9656955, “The Novel Class IIa Selective Histone Deacetylase Inhibitor YAK540 Is Synergistic with Bortezomib in Leukemia Cell Lines” (International Journal of Molecular Sciences, 2022)

Assays:
Format in all cases: biochemical
HDAC 8 = molecular target: T1, HDAC 8 (Homo sapiens, UniProt Q9BY41); experiment: recombinant enzyme fluorogenic assay, Boc-Lys-(Tfa)-AMC substrate; settings: recombinant hdac 8; read-out: YAK540 / IC50 (pIC50 ±SEM) (converted)
T1 construct: gene HDAC8
T1 sequence (Q9BY41 1-377): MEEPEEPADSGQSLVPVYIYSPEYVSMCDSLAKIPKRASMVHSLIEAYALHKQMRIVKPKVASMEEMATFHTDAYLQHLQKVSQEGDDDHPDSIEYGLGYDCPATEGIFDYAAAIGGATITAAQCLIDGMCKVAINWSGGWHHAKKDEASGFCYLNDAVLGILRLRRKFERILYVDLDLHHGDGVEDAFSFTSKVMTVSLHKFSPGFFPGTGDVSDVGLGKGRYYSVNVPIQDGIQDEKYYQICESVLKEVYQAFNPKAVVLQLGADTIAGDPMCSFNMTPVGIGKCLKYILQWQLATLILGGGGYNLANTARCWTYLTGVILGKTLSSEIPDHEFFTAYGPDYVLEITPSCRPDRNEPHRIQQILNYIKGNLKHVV

HDAC 6 = molecular target: T2, HDAC 6 (Homo sapiens, UniProt Q9UBN7); experiment: recombinant enzyme fluorogenic assay, Boc-Lys(Ac)-AMC substrate; settings: recombinant hdac 6; read-out: YAK540 / IC50 (pIC50 ±SEM) (converted)
T2 construct: gene HDAC6
T2 sequence (Q9UBN7 1-1215): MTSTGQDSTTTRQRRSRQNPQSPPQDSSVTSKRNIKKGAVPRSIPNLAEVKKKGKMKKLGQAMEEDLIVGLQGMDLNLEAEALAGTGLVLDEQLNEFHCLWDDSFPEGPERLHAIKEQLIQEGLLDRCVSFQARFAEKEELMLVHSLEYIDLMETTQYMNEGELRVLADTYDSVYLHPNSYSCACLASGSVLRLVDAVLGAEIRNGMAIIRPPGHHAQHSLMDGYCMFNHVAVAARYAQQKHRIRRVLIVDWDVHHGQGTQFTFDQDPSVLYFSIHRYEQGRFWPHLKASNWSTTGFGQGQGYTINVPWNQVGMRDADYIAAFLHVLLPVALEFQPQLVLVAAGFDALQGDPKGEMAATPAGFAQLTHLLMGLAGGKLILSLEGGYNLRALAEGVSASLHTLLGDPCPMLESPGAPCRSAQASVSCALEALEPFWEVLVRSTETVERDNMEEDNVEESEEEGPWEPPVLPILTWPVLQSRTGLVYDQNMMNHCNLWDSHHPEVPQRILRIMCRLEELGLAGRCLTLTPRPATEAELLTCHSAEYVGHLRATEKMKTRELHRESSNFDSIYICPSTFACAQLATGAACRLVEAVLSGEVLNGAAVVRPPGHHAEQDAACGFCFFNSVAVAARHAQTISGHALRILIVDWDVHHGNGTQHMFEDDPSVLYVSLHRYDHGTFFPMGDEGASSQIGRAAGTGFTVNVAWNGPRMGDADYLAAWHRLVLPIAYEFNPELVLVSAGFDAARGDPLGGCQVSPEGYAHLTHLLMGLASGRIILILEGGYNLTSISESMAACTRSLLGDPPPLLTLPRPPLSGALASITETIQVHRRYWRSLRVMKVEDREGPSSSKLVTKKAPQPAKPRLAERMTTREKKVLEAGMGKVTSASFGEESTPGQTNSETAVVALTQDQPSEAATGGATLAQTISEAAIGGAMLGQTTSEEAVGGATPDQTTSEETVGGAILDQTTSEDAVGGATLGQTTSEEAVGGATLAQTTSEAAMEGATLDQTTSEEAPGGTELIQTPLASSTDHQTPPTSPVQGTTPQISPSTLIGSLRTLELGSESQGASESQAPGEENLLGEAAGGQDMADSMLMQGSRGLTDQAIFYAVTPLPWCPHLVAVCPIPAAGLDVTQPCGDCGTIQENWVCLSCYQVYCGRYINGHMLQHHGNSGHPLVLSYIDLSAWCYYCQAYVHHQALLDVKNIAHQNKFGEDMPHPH

HDAC 2 = molecular target: T3, HDAC 2 (Homo sapiens, UniProt Q92769); experiment: as above; settings: recombinant hdac 2; read-out: YAK540 / IC50 (pIC50 ±SEM) (converted)
T3 construct: gene HDAC2
T3 sequence (Q92769 whole entry): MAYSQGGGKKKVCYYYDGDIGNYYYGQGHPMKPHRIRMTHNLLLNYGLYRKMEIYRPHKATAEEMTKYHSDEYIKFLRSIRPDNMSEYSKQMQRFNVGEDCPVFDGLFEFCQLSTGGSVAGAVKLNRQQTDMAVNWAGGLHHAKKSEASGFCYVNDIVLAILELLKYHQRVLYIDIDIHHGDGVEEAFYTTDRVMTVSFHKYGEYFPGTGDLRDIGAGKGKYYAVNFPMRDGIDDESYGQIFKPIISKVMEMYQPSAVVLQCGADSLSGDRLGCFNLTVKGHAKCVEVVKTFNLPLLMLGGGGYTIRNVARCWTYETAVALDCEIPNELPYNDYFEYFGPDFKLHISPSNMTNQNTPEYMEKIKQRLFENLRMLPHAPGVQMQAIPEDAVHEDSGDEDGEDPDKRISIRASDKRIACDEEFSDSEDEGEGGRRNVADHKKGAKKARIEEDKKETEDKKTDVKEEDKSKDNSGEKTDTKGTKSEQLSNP

HDAC 4 = molecular target: T4, HDAC 4 (Homo sapiens, UniProt P56524); experiment: recombinant enzyme fluorogenic assay, Boc-Lys-(Tfa)-AMC substrate; settings: recombinant hdac 4; read-out: YAK540 / IC50 (pIC50 ±SEM) (converted)
T4 construct: gene HDAC4
T4 sequence (P56524 whole entry): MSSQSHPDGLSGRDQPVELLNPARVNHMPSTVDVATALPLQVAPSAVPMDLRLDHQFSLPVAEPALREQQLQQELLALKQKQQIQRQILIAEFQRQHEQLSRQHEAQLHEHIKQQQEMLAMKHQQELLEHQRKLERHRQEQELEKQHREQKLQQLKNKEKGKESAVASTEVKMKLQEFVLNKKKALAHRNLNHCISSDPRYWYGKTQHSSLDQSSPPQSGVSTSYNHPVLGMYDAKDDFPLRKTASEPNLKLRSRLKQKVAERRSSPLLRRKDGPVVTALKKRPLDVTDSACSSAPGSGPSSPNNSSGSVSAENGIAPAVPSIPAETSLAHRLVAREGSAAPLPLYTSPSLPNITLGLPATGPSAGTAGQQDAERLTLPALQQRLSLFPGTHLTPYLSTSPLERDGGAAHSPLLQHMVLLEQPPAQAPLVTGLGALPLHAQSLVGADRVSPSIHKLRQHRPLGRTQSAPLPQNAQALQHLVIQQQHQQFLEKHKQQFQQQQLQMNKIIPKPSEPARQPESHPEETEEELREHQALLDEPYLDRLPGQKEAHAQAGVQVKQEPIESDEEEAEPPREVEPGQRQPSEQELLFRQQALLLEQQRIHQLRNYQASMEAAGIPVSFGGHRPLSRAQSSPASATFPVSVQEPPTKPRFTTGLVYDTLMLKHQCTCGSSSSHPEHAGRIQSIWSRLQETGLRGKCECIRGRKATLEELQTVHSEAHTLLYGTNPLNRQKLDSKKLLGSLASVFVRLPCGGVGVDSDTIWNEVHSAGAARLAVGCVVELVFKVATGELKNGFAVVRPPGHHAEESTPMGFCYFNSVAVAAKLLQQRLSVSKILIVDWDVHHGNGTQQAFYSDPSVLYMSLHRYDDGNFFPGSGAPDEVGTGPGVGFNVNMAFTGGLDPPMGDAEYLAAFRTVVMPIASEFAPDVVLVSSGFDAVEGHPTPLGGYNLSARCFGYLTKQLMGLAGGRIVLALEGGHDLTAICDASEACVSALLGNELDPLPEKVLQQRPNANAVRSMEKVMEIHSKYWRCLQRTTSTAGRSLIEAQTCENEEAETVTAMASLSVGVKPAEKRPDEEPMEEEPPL

IC50 (HDAC 8): 9.39 µM | IC50 (HDAC 6): 11.4 µM | IC50 (HDAC 2): 30.2 µM | IC50 (HDAC 4): 0.114 µM
Structure (SMILES): O=C(NOCCN1CCCCC1)c1ccc(-c2noc(C(F)(F)F)n2)cc1 [YAK540]
